Read-outs that look alike come from different tables or passages of the source.
Experiments:
DENV1 and DENV2 = assay: DENV infectivity inhibition, summary over DENV1 and DENV2 in Vero E6 and A549 cells; format: cell-based, Dengue virus; conditions: read-out: IC50 in DENV infectivity (range over assays)
Excerpt: […] In CPE and infectivity reduction assays, […], and then photographed by microscope for examining the levels of DENV2-induced CPE in infected cells treated with or without GL conjugate. Meanwhile, the cells were further performed using immunofluorescence assay (IFA) with anti-DENV NS4B antibodies (GeneTex, Inc., Hsinchu, Taiwan) and anti-rabbit IgG antibodies conjugated with AF555 (ThermoFisher, Waltham, MA, USA) plus DAPI (4′,6-diamidino-2-phenylindole) nuclear staining. Finally, the DENV-2 infectivity was measured according to the ratio of DENV NS4B-positive cells to DAPI-stained cells in the well of mock-treated or treated cells, as described in [45, 59, 60].

DENV2 = assay: Time-of-addition/compound removal assay with DENV2 in Vero E6 cells; format: cell-based, Dengue virus type 2; conditions: for IC50: Dengue virus, Vero C1008, attachment mode, 4 °C, DENV2, Vero E6 cells; for Stage of DENV2 replication affected (attachment, entry, post-entry modes): time-of-addition/removal, Vero E6 cells
Procedure: Figure 5 Time-of-addition and removal assay for analyzing antiviral action of compounds 3 (A), 6 (B), 11 (C), and 21 (D) in Vero E6 cells. In the attachment mode, cells were pre-cooled and incubated with fresh-prepared mixtures of active compounds with DENV2 at 4 °C for 1 h. After the removal of the mixtures, the cells were kept at 37 °C for 96 h (a cycle of viral replication) and then were performed by immunofluorescent assay plus DAPI staining. In entry and post-entry modes, cells were infected with DENV2 and treated with the compounds simultaneously (the entry stage) or 1-h post-infection (post-entry stage). After a 1 h incubation period, the virus/compound mixture was removed; the cell monolayer was washed with PBS and cultured for 96 h and then subjected to immunofluorescence staining and DAPI. Finally, the inhibition percentage of DENV2 infectivity was calculated as follows: 1-(percentage of NS4B positivity in treated cells/percentage of NS4B positivity in mock-treated cells). *** p < 0.001 compared with the other two antiviral action modes.
The time-of-addition assays consisted of three modes including attachment treatment/removal, entry-treatment/removal, and post-entry treatment/removal modes. In the attachment-treatment/removal mode, Vero E6 cells monolayer in 6-well plate was placed at 4 °C for 2 h and incubated with the fresh-prepared mixture of DENV-2 (MOI = 0.005) with the active compound at indicated concentrations for 2 h at 4 °C, and then washed with phosphate-buffered saline (PBS). In the entry-treatment/removal mode, Vero E6 cells were simultaneously treated with the active compound and infected DENV-2 (MOI = 0.005) in 6-well plates, incubated for 1 h at 37 °C, and then washed with PBS. In the post-entry treatment/removal mode, the cells were infected with DENV-2 for 1 h at 37 °C, treated with the active compounds at indicated concentrations for 1 h at 37 °C, respectively, and then washed by PBS. After active compound removal (washout), the cells were incubated at 37 °C for 96 h, and then were analyzed by immunofluorescent and DAPI staining assay for determining the residual DENV-2 infectivity, as described above. The inhibitory activity of the transient treatment by active compounds on attachment, entry, and post-entry stages of DENV replication in vitro was determined based on the residual infectivity.

DENV2 prME/ZIKV SRIPs = assay: E protein-mediated attachment assay with chimeric DENV2 prME/ZIKV SRIPs on Vero E6 cells; format: cell-based, Dengue virus type 2; conditions: Vero C1008, 1 h, read-out: IC50 of E-mediated attachment against DENV2 prME/ZIKV SRIPs
Procedure: Figure 7 Attachment inhibition of chimeric DENV2 prM-E/ZIKV and wild-type ZIKV SRIPs by active GL derivatives 3 and 11. Vero E6 cells were pre-cooled and incubated with fresh-prepared mixtures of DENV2 prM-E/ZIKV or wild-type ZIKV SRIPs, with active GL derivatives 3 (A), and 11 (B) at 4 °C for 1 h, respectively. After the removal of the mixtures, the cells were kept at 37 °C for 18 h and then an immunofluorescent assay with anti-ZIKV NS1 antibodies plus DAPI staining was performed. Finally, the inhibition percentage of SRIP attachment infectivity was measured as follows: 1-(percentage of ZIKV NS1 positivity in treated cells/ percentage of ZIKV NS1 positivity in mock-treated cells). * p < 0.05; *** p < 0.001 compared with untreated, infected cells.
DNA-launched cytomegaloviruses (CMV) promoter-driven JEV and ZIKV replicons had been constructed, as described in our prior reports. […] After the removal of the mixture (the compound and SRIP), the cells were incubated at 37 °C for 18 h, and then were analyzed by immunofluorescent assay with anti-JEV NS3 and anti-ZIKV NS5 antibodies, respectively, plus DAPI staining for determining the residual infectivity of wild-type and chimeric SRIPs, as described above.

[1] = Dengue virus, range over DENV1 and DENV2, Vero E6 and A549 cells

Q: For `CCOC(=O)[C@H](Cc1ccccc1)NC(=O)[C@H]1O[C@@H](O[C@H]2[C@H](OC3CC[C@@]4(C)C(CC[C@]5(C)C4C(=O)C=C4C6C[C@@](C)(C(=O)O)CC[C@]6(C)CC[C@]45C)C3(C)C)O[C@H](C(=O)N[C@@H](Cc3ccccc3)C(=O)OCC)[C@@H](O)[C@@H]2O)[C@H](O)[C@@H](O)[C@@H]1O` (stereo partly drawn) [Compound 11, 3-O-{2-O-[N-(β-D-Glucopyranosyluronoyl)-L-phenylalanineethyl ester]-N-(β-D-Glucopyranosyluronoyl)-L-phenylalanineethyl ester}-(3β, 20β)-11-oxo-30-noroleane-12-ene-30-oic Acid], which IC50 (DENV1 and DENV2; [1]) is on record?
A: 0.1 to 5.98 µM

Q: What about the IC50 (DENV1 and DENV2) of the same molecule?
A: 0.18 to 1.56 µM

Q: And the IC50 (DENV2)?
A: 0.18 µM

Q: What about the “Stage of DENV2 replication affected (attachment, entry, post-entry modes)” value (DENV2) of the same molecule?
A: mostly affected the virus binding stage to the cell surface in the attachment mode

Q: What about the IC50 (DENV2 prME/ZIKV SRIPs) of the same molecule?
A: 1.26 µM

Q: What does the source list for `COC(=O)[C@H](NC(=O)[C@H]1O[C@@H](O[C@H]2[C@H](OC3CC[C@@]4(C)C(CC[C@]5(C)C4C(=O)C=C4C6C[C@@](C)(C(=O)O)CC[C@]6(C)CC[C@]45C)C3(C)C)O[C@H](C(=O)N[C@@H](C(=O)OC)C(C)C)[C@@H](O)[C@@H]2O)[C@H](O)[C@@H](O)[C@@H]1O)C(C)C` (stereo partly drawn) [Compound 3, 3-O-{2-O-[N-(β-D-Glucopyranosyluronoyl)-D-valinemethyl ester]-N-(β-D-glucopyranosyluronoyl)-D-valinemethyl ester}-(3β, 20β)-11-oxo-30-noroleane-12-ene-30-oic Acid]?
A: IC50 (DENV1 and DENV2; [1]): 0.1 to 5.98 µM; IC50 (DENV1 and DENV2): 0.12 to 2.81 µM; IC50 (DENV2): 1.86 µM; Stage of DENV2 replication affected (attachment, entry, post-entry modes) (DENV2): mostly affected the virus binding stage to the cell surface in the attachment mode; IC50 (DENV2 prME/ZIKV SRIPs): 2.82 µM

Reference: paper PMC9499324, “Glycyrrhizic Acid Derivatives Bearing Amino Acid Residues in the Carbohydrate Part as Dengue Virus E Protein Inhibitors: Synthesis and Antiviral Activity” (International Journal of Molecular Sciences, 2022)
